In patent publication US11124785B2, “Rothia subtilisins, S8A family proteases, as therapeutic enzymes for application in gluten intolerance disorders” (TRUSTEES OF BOSTON UNIVERSITY, priority 2016, dated 2021):
One block for each molecule: values may come before it.

What was measured:
Z-YPQ-pNA = assay: Hydrolysis of paranitroanilide-derivatized substrate Z-YPQ-pNA; format: biochemical; conditions: substrate 200 μM, enzyme 1 μg/ml, pH 8.0; second most rapid after Suc-AAPF-pNA
Description: (§1) FIG. 4A and FIG. 4B are representative graphs of the hydrolysis of the substrates: Suc-AAPF-pNA (SEQ ID NO: 4), Z-YPQ-pNA, and Z-LPY-pNA, each at 200 μM, by Rmep and subtilisin A, respectively, each at 1 μg/ml.
(§2) Hydrolysis of paranitroanilide-derivatized substrates—Paranitroanilide (pNA)-derivatized tripeptide substrates were chemically synthesized at >90% purity (21st Century Biochemicals, Marlborough, Mass.). The substrates obtained were Z-YPQ-pNA, Z-QQP-pNA, Z-LPY-pNA, Z-PFP-pNA, Z-PPF-pNA, where Z=benzyloxycarbonyl, Y=tyrosine, P=proline, Q=glutamine, L=leucine, and F=phenylalanine Suc-AAPF-pNA (SEQ ID NO: 4) was obtained from Sigma, where Suc=N-succinyl and A=alanine. The peptides were dissolved in 75-100% DMSO at 10 mM, and were used at a final concentration of 200 μM in 50 mM TrisHCl pH 8.0. Purified Rothia enzyme or subtilisin A from Bacillus licheniformis (Sigma) were tested at final concentrations of 1 μg/ml. Some experiments were conducted in the presence of inhibitors 4-(2-Aminoethyl) benzenesulfonyl fluoride (AEBSF), Aprotinin, E-64, EDTA, phenylmethanesulfonyl fluoride (PMSF) and Eglin C, which were tested at final concentrations of 10 mM, 0.08 mM, 0.1 mM, 1.5 mM, 1 mM, and 0.06-1.2 μM, respectively. […] Substrate hydrolysis was monitored for 10 h at 405 nm using a Genios microtiter plate reader (Tecan, Männedorf, Switzerland) in the kinetic mode at 37° C.

Z-QQP-pNA = assay: Hydrolysis of paranitroanilide-derivatized substrate Z-QQP-pNA; format: biochemical; conditions: substrate 200 μM, pH 8.0 (data not shown)
Description: (§3) Hydrolysis of paranitroanilide-derivatized substrates—Paranitroanilide (pNA)-derivatized tripeptide substrates were chemically synthesized at >90% purity (21st Century Biochemicals, Marlborough, Mass.). The substrates obtained were Z-YPQ-pNA, Z-QQP-pNA, Z-LPY-pNA, Z-PFP-pNA, Z-PPF-pNA, where Z=benzyloxycarbonyl, Y=tyrosine, P=proline, Q=glutamine, L=leucine, and F=phenylalanine Suc-AAPF-pNA (SEQ ID NO: 4) was obtained from Sigma, where Suc=N-succinyl and A=alanine. The peptides were dissolved in 75-100% DMSO at 10 mM, and were used at a final concentration of 200 μM in 50 mM TrisHCl pH 8.0. Purified Rothia enzyme or subtilisin A from Bacillus licheniformis (Sigma) were tested at final concentrations of 1 μg/ml. Some experiments were conducted in the presence of inhibitors 4-(2-Aminoethyl) benzenesulfonyl fluoride (AEBSF), Aprotinin, E-64, EDTA, phenylmethanesulfonyl fluoride (PMSF) and Eglin C, which were tested at final concentrations of 10 mM, 0.08 mM, 0.1 mM, 1.5 mM, 1 mM, and 0.06-1.2 μM, respectively. Enzymes were preincubated with the inhibitors for 20 min before adding Suc-AAPF-pNA (SEQ ID NO: 4). Substrate hydrolysis was monitored for 10 h at 405 nm using a Genios microtiter plate reader (Tecan, Männedorf, Switzerland) in the kinetic mode at 37° C.

[1] = tested on: G12 epitopes (QPQLPY) in mixed gliadins; assay: G12 ELISA, gluten epitope elimination in gliadin digests; format: biochemical; conditions: gliadins 250 μg/ml, enzyme 57 μg/ml
Description: FIG. 8E and FIG. 8F show the assessment of the survival of epitopes in the gliadin-NattoK degradation mixture employing the R5 ELISA (FIG. 8E) or G12 ELISA (FIG. 8F) assays. Epitope abolishment in Mixed gliadins (250 μg/ml) were incubated with NattoK (57 μg/ml) for 0, 15, 30 and 120 min and then assayed by the R5 ELISA or G12 ELISA.
R5 and G12 ELISA assays—Gluten epitope elimination in the gliadin-Rmep and gliadin-subtilisin A digests was assessed using two sandwich ELISA assays employing the R5 monoclonal antibody (RIDASCREEN Gliadin, R-Biopharm, Darmstadt, Germany) or the G12 monoclonal antibody (AgraQuant® ELISA Gluten G12, Romer labs, Union, Mo.). To prevent high background values, the R5 plate wells were blocked with 1% skim milk in PBS prior to incubation with the samples. The assays were performed according to the manufacturers' instructions and as described (21, 24).
To further investigate this, the time courses of degradation of mixed gliadins and the highly immunogenic 33-mer α-gliadin peptide were determined. Furthermore, epitope elimination was monitored by two ELISA assays employing the R5 antibody recognizing QQPFP (SEQ ID NO: 40) and related pentapeptides (27, 28) and the G12 antibody recognizing QPQLPY (SEQ ID NO: 22) contained in the 33-mer peptide (29, 30). Data obtained with Rmep are shown in FIG. 5, and with subtilisin A in FIG. 6.

Z-LPY-pNA = assay: Hydrolysis of paranitroanilide-derivatized substrate Z-LPY-pNA; format: biochemical; conditions: five-fold increased enzyme concentrations (5 μg/ml) and longer incubation times
Description: as §1
FIG. 4C show a representative graph of the hydrolysis of the substrate, LPY, by Rmep and subtilisin A at 5 μg/ml and extended incubation times.
as §2, with “μg/ml.” for “μg/ml. Some experiments were conducted in the presence of inhibitors 4-(2-Aminoethyl) benzenesulfonyl fluoride (AEBSF), Aprotinin, E-64, EDTA, phenylmethanesulfonyl fluoride (PMSF) and Eglin C, which were tested at final concentrations of 10 mM, 0.08 mM, 0.1 mM, 1.5 mM, 1 mM, and 0.06-1.2 μM, respectively.”

mixed gliadins = assay: Degradation of mixed gliadins (SDS-PAGE); format: biochemical, wheat; conditions: gliadins 250 μg/ml, enzyme 57 μg/ml
Description: FIG. 5A is a representative SDS-PAGE gel of non-digested gliadins (control) and Rmep-treated gliadins. Gliadins (250 μg/ml) in 50 mM Tris/HCl pH 8.0 were incubated with Rmep at 57 μg/ml. After 0, 15 min, 30 min and 2 h incubation 100 μl aliquots were removed, boiled and analyzed by SDS-PAGE and stained with COOMASSIE Brilliant Blue. The bold arrow (left) points to the position of the major band in the gliadin preparation; the thin arrow (right) to the 125 kDa band in the Rmep preparation, and the dotted arrows (right) to the gliadin degradation fragments.
FIG. 6A is a representative SDS-PAGE gel of non-digested gliadins (control) and subtilisin A-treated gliadins. Gliadins (250 μg/ml) in 50 mM Tris/HCl pH 8.0 were incubated with subtilisin A at 57 μg/ml. Experiments were conducted as described in the legend of FIG. 5 with subtilisin A instead of Rmep.
FIG. 8A is a representative SDS-PAGE gel of non-digested gliadins (control) and NattoK-treated gliadins. Mixed gliadins (G, 250 μg/ml) were incubated with NattoK (57 μg/ml) for 0, 15, 30 and 120 min. Left four lanes: controls without enzyme or gliadins, respectively, each at t=0 and 120 min. Arrow points to the major components in the gliadin mixture represented by α and γ-gliadins containing most of the immunogenic epitopes.
Degradation of mixed gliadins and the 33-mer peptide—Mixed gliadins were obtained from Sigma. A synthetic highly immunogenic α-gliadin derived 33-mer peptide (26) was synthesized at a purity of >90% (21st Century Biochemicals). Mixed gliadins or the 33-mer peptide (each at final concentration 250 μg/ml) were incubated with Rmep or subtilisin A (each at 57 μg/ml) in 50 mM TrisHCl, pH 8.0. After t=0, 15 min, 30 min, and 2 h, 100 μl sample aliquots were removed and boiled. Gliadin degradation was assessed by 4-12% SDS-PAGE followed by Coomassie staining, and 33-mer degradation was determined by RP-HPLC.

Suc-AAPF-pNA = assay: Hydrolysis of paranitroanilide-derivatized substrate Suc-AAPF-pNA; format: biochemical; conditions: substrate 200 μM; enzyme 1 μg/ml (NattoK: dilution series); 50 mM TrisHCl pH 8.0, 37° C.
Description: as §1
FIG. 8C show a representative graph of the hydrolysis of the substrate, Suc-AAPF-pNA (SEQ ID NO: 4), with a dilution series of NattoK. Suc-AAPF-pNA (SEQ ID NO: 4) was incubated […]. Hydrolysis was measured at 405 nm.
as §3

decrease of G12 antibody binding after 30 min ([1]; 30 min): 65% | reduction of G12 antibody binding / G12 epitope degradation after 2 h [1]: 85%
Molecule: Rmep: DEAE pooled fraction F2 of R. mucilaginosa ATCC 25296 extract with highest gluten-degrading enzyme activity; contains subtilisins C6R5V9_9MICC and C6R5W1_9MICC
hydrolysis of Z-YPQ-pNA (Z-YPQ-pNA): cleaved | hydrolysis of Z-QQP-pNA (Z-QQP-pNA): not hydrolyzed | hydrolysis of Z-LPY-pNA (Z-LPY-pNA): could be demonstrated | incubation time within which mixed gliadins were degraded (mixed gliadins; 50 mM TrisHCl pH 8.0): ≤ 15 min | hydrolysis of Suc-AAPF-pNA (Suc-AAPF-pNA): cleaved most rapidly

reduction of G12 antibody binding / G12 epitope degradation after 2 h [1]: 45%
B1: subtilisin A: subtilisin A from Bacillus licheniformis (Sigma) (protein, listed as Bacillus licheniformis)
chain: MMRKKSFWLGMLTAFMLVFTMAFSDSASAAQPAKNVEKDYIVGFKSGVKTASVKKDIIKESGGKVDKQFRIINAAKAKLDKEALKEVKNDPDVAYVEEDHVAHALAQTVPYGIPLIKADKVQAQGFKGANVKVAVLDTGIQASHPDLNVVGGASFVAGEAYNTDGNGHGTHVAGTVAALDNTTGVLGVAPSVSLYAVKVLNSSGSGTYSGIVSGIEWATTNGMDVINMSLGGPSGSTAMKQAVDNAYARGVVVVAAAGNSGSSGNTNTIGYPAKYDSVIAVGAVDSNSNRASFSSVGAELEVMAPGAGVYSTYPTSTYATLNGTSMASPHVAGAAALILSKHPNLSASQVRNRLSSTATYLGSSFYYGKGLINVEAAAQ
hydrolysis of Z-YPQ-pNA (Z-YPQ-pNA): cleaved | hydrolysis of Z-QQP-pNA (Z-QQP-pNA): not hydrolyzed | G12 epitope degradation at t=0 ([1]; t=0): 22% | hydrolysis of Z-LPY-pNA (Z-LPY-pNA): could be demonstrated | degradation of mixed gliadins in the t=0 sample (mixed gliadins; pH 8.0, t=0): near complete degradation | hydrolysis of Suc-AAPF-pNA (Suc-AAPF-pNA): cleaved most rapidly
